Source: US10189796B2, “[4-(1,3,3-trimethyl-2-oxo-3,4-dihydro-1H-quinoxalin-7-yl)phenoxy]ethyloxy compound or salt thereof” (SANTEN PHARMACEUTICAL CO., LTD., priority 2015, dated 2019)

Tests used:
[1] = tested on: exorbital lacrimal gland-removed rat dry eye model; assay: Dry eye syndrome (dry eye) model evaluation test; assay type: in vivo; settings: eye drop 5 μL four times a day
Procedure: In order to evaluate the treatment effect of the present compounds on corneal disorder accompanied by dry eye syndrome (dry eye), a treatment effect on corneal disorder in an exorbital lacrimal gland-removed rat dry eye model was investigated. This model was prepared in accordance with the method of Fujihara, et al. (Invest. Ophthalmol. Vis. Sci., 42(1): 96-100 (2001)). Incidentally, this effect was scored according to the method of Murakami et al. (New Ophthalmologist 21(1): 87-90 (2004)), the extent of corneal disorder was scored and the improvement ratio was calculated from the corneal disorder score of the base agent administered group (control group), the corneal disorder score of the test compound administered group and the corneal disorder score of the normal rat.
A base agent containing a general additive(s) was added to the test compound to prepare test compound suspensions with 0.03% (W/V) and 0.1% (W/V). In addition, a base agent was added to the commercially available drug A to prepare a diluted solution with 0.05% (V/V).
• 1) By using male SD rats, somnopentyl was administered to the rats to apply them general anesthesia, exorbital lacrimal glands were removed, and corneal disorder was induced over 8 weeks thereafter. • 2) The test compound suspension was eye-dropped (instillation dose: 5 μL/time) to both eyes four times a day for 14 days. Incidentally, the base agent was similarly eye-dropped to the administered group (control group), and the commercially available drug A and its diluted solution were similarly eye-dropped. • 3) Fourteen days after the start of eye dropping, the cornea was stained with fluorescein. For each of the upper part, the middle part and the lower part of the cornea, scores of the degree of staining with fluorescein were determined according to the following criteria, and an average value of the total of the scores was calculated. Incidentally, 0.5 was set as an intermediate value between each score of 0, 1, 2 and 3. <<Judgement Standard>>
1: Dyeing is sparse, and the dyed portions of each dot are separated
2: Dyeing is a middle degree and part of the dotted dyed portions is adjacent
3: Dyeing is dense, and the dyed portions of each point are almost adjacent
(Calculation Formula) Corneal disorder improvement ratio (%) of the test compound administered group=(Ao−Ax)/(Ao−An)×100 • Ao: Average value of corneal disorder score of the base agent administered group (control group) • Ax: Average value of corneal disorder score of the test compound administered group • An: Average value of corneal disorder score of normal rat (Test Result and Consideration)

[2] = tested on: exorbital lacrimal gland-removed rat dry eye model; assay: Dry eye syndrome (dry eye) model evaluation test; assay type: in vivo; settings: eye drop 5 μL four times a day; remark: listed apart in the source
[3] = tested on: VEGF-induced retinal elevated vascular permeability model of rabbits; assay: Retinal vascular permeability model evaluation test; assay type: in vivo, rabbit; settings: 2% 50 μL/base agent A, intravitreal once; 4 weeks before VEGF induction
Procedure: In order to evaluate the inhibitory effect of the present compounds on VEGF-induced retinal vascular permeability, the inhibitory effect of the present compound on retinal vascular permeability in a VEGF-induced retinal elevated vascular permeability model of rabbits was evaluated. Incidentally, this effect was evaluated by calculating a leaked amount of the fluorescent dye of the base agent administered group (non-induced group), a leaked amount of the fluorescent dye of the base agent administered group (control group) and a leaked amount of the fluorescent dye of the test compound administered group.
To the test compound was added 0.01% Polysorbate 80/0.5% sodium carboxymethyl cellulose/PBS (hereinafter referred to as “base agent A”.), whereby 2% (W/V) or 8% (W/V) of the test compound suspension was prepared. Or else, to the test compound was added PEG400 (hereinafter referred to as “base agent B”.), whereby 6% (W/W) of the test compound solution was prepared.
VEGF solution: humanVEGF165 was dissolved in PBS to prepare 50 μg/mL of VEGF solution.
• 1) A mixed solution (1 mL/kg) of 5% ketamine hydrochloride injection solution and 2% xylazine hydrochloride injection solution with the ratio of 7:1 was intramuscularly administered to rabbits (Dutch male rabbits), and the rabbits were anesthetized. • 2) Tropicamide-phenylephrine hydrochloride ophthalmic solution (trade name: Midlin P) was eye dropped to maintain pupillary mydriasis, and then, the VEGF solution was intravitreally administered. Incidentally, PBS was intravitreally administered to the base agent administration group (non-induced group). • 3) Fluorescein was intravenously administered 2 days after intravitreal administration of VEGF. Two hours after the intravenous administration of fluorescein, an amount of the leaked fluorescent dye in the vitreous body was measured by using a fluorophotometer. (Test Method) • 1) One week before or 4 weeks before VEGF-induction, 50 μL of the test compound suspension (prepared by the base agent A) was intravitreally administered once, or 5 μL of the test compound solution (prepared by the base agent B) was intravitreally administered once. Incidentally, in the base agent administered group (non-induced group) and the base agent administered group (control group), the base agent A was used in place of the test compound suspension, or the base agent B was used in place of the test compound solution. • 2) Inhibition ratio of elevated retinal vascular permeability was calculated according to the following calculation formula. (Calculation Formula) Inhibitory ratio (%) on elevated retinal vascular permeability of the test compound administered group=100×{1−(average value of a leaked fluorescent dye amount in the test compound administered group−average value of a leaked fluorescent dye amount in the base agent administered group (non-induced group))/(average value of a leaked fluorescent dye amount in the base agent administered group (control group)−average value of a leaked fluorescent dye amount of the base agent administered group (non-induced group))}

| SMILES | Corneal disorder improvement ratio (%) After 14 days eye dropping ([1]; 0.1%) | Corneal disorder improvement ratio (%) After 7 days eye dropping ([2]; 0.1%) | Corneal disorder improvement ratio (%) After 14 days eye dropping ([1]; 0.03%) | Corneal disorder improvement ratio (%) After 7 days eye dropping ([2]; 0.03%) | Inhibitory ratio (%) on elevated vascular permeability [3] |
| --- | --- | --- | --- | --- | --- |
| COc1cc(OC[C@H](C)OC(=O)C(O)CO)ccc1-c1ccc2c(c1COc1cc(F)ccc1C)N(C)C(=O)C(C)(C)N2 (stereo partly drawn) [Compound 13-1, (S)-7-[4-[2-(2,3-dihydroxypropanoyl)oxypropyl]oxy-2-methoxyphenyl]-8-(5-fluoro-2-methylphenoxymethyl)-1,3,3-trimethyl-3,4-dihydro-1H-quinoxalin-2-one] | 46% | 38% | – | – | – |
| COc1cc(OC[C@H](C)OC(=O)CCC(=O)O)ccc1-c1ccc2c(c1COc1cc(F)ccc1C)N(C)C(=O)C(C)(C)N2 [Compound 12-1, (S)-7-[4-[2-(3-carboxypropanoyloxy)propyl]oxy-2-methoxyphenyl]-8-(5-fluoro-2-methylphenoxymethyl)-1,3,3-trimethyl-3,4-dihydro-1H-quinoxalin-2-one] | 58% | 42% | 48% | 33% | – |
| COc1cc(OC[C@H](C)OC(=O)C2CCCN2)ccc1-c1ccc2c(c1COc1cc(F)ccc1C)N(C)C(=O)C(C)(C)N2.Cl (stereo partly drawn) [Compound 11-2, 8-(5-Fluoro-2-methylphenoxymethyl)-7-[4-[(2S)-[(2S)-pyrrolidylcarbonyloxy]-propyl]oxy-2-methoxyphenyl]-1,3,3-trimethyl-3,4-dihydro-1H-quinoxalin-2-one hydrochloride] | – | – | – | – | 92% |
